# Counter-ions that a name gives are not always drawn. Like-named read-outs stand apart in the source and are kept apart here.
# How the values were obtained:
# [1] = biological target: CDK2/Cyclin A (Homo sapiens, UniProt P24941); assay: Inhibition of CDK2/Cyclin A Retinoblastoma Kinase Activity; format: biochemical; details: for Ki: apparent Ki, CDK2/proteolyzed cyclin A, Rb fragment substrate, 25 μM ATP; for CDK2 % Inhibition At 0.03 μM: Table 2
# Outline: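 Baculovirus-expressed CDK2 complexed with proteolyzed cyclin A (10 or 19 nM), Rb fragment substrate, 25 μM [32P/33P]ATP, HEPES pH 7.4, 30 °C for 60 or 75 min under initial-rate conditions. Filter capture and phosphorimager readout; apparent Ki fitted to competitive or tight-binding competitive inhibition.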
# [2] = biological target: human CDK4 and genetically truncated (1-264) cyclin D3 (Homo sapiens, UniProt P11802); assay: Inhibition of CDK4/Cyclin D Retinoblastoma Kinase Activity; format: biochemical; details: for Ki: apparent Ki, CDK4/truncated cyclin D3, Rb fragment substrate, 25 μM ATP
# human CDK4 and genetically truncated (1-264) cyclin D3, sequence (P11802 whole entry, the tested form may be a part): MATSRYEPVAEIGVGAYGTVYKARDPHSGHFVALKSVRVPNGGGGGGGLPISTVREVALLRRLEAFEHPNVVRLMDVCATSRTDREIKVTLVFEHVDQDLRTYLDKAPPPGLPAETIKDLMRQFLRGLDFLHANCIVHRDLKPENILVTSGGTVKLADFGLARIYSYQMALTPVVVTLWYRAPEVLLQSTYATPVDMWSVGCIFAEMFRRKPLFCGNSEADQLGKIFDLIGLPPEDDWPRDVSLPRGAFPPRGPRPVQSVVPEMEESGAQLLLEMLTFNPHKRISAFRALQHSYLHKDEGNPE
# human CDK4 and genetically truncated (1-264) cyclin D3, sequence (P30281 1-264 partner): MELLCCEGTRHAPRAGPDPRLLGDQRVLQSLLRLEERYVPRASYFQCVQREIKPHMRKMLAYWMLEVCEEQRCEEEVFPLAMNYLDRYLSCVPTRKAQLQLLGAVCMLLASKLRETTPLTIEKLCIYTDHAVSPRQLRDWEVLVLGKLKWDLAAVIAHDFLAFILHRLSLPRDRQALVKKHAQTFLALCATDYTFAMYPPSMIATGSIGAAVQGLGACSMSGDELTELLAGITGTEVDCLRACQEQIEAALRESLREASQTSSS
# Outline: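 Human CDK4/truncated cyclin D3 (1-264) complex from baculovirus-infected insect cells, 5 nM, phosphorylating Rb fragment (residues 386-928, His-tagged) with 25 μM [32/33P]ATP in HEPES pH 7.4, MgCl2, 2% DMSO at 30° C. for 20 min (60 min for tight binders). Filter-captured radioactivity by phosphorimager; apparent Ki from competitive or tight-binding fits.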
# [3] = tested on: HCT-116 cell line; assay: Inhibition of cell growth, tetrazolium salt (MTT) assay; format: cell-based; details: for HCT-116 % Inhibition at 0.25 μM: 0.25 μM compound; for IC50: Homo sapiens, HCT-116, 120 h, MTT, three to five days, read-out: HCT-116 IC50
# Outline: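 MTT colorimetric viability: three-to-five-day compound exposure in 0.5% (v/v) DMSO at 37° C, MTT 0.2 mg/mL for the last 4 h, A540 compared with vehicle-treated cells.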
# [4] = 0.1 μM compound, HCT-116, Table 3
# [5] = 0.1 μM compound, HCT-116, Table 4
smiles,measurement,setting,value
Cc1ccc(S(=O)(=O)N2CCC(Nc3nc(N)c(C(=O)c4c(F)cccc4F)s3)CC2)cc1 [Example P23],CDK2 % Inhibition at 0.03 μM,"[1]; 0.03 μM compound, Table 3",64%
same,CDK4 % Inhibition at 0.03 μM,"[2]; 0.03 μM compound, Table 3",67%
same,HCT-116 % Inhibition at 0.1 μM,[3]; [4],19%
same,HCT-116 % Inhibition at 0.25 μM,"[3]; HCT-116, Table 3",32%
Nc1nc(NC2CCN(C(=O)c3cccc(Br)c3)CC2)sc1C(=O)c1c(F)cccc1F [Example Q18],CDK2 % Inhibition at 0.03 μM,"[1]; 0.03 μM compound, Table 4",44%
same,CDK4 % Inhibition at 0.03 μM,"[2]; 0.03 μM compound, Table 4",73%
same,HCT-116 % Inhibition at 0.1 μM,[3]; [5],59%
same,HCT-116 % Inhibition at 0.25 μM,"[3]; HCT-116, Table 4",92%
"Nc1nc(NC2CCN(S(=O)(=O)c3ccc(CCNc4cccc(O)c4)nc3)CC2)sc1C(=O)c1c(F)cccc1F [Example N6, [4-Amino-2-(1-{6-[2-(3-hydroxy-phenylamino)-ethyl]-pyridine-3-sulfonyl}-piperidin-4-ylamino)-thiazol-5-yl]-(2,6-difluoro-phenyl)-methanone Hydrochloride Salt.]",Ki,[1],0.3 nM
same,Ki,[2],0.31 nM
same,IC50,[3]; first HCT-116 column (c4),410 nM
same,IC50,[3]; second HCT-116 column (c5),1300 nM
COC(=O)CC(=O)N1CCC(Nc2nc(N)c(C(=O)c3c(F)cccc3F)s2)CC1 [Example R2],CDK2 % Inhibition at 0.03 μM,[1]; at 0.03 μM,−24%
same,CDK4 % Inhibition at 0.03 μM,[2]; at 0.03 μM,13%
same,HCT-116 % Inhibition at 0.1 μM,"[3]; HCT-116 cells, at 0.1 μM",1%
same,HCT-116 5 Inhibition at 0.25 μM,[3]; HCT-116 cells,49
"Nc1nc(NC2CCN(S(=O)(=O)c3ccc(F)cc3)CC2)sc1C(=O)c1c(F)cccc1F [Example F17, 1-{4-Amino-2-[1-(4-fluoro-benzenesulfonyl)-piperidin-4-ylamino]-thiazol-5-yl}1-(2,6-difluoro-phenyl)-methanone]",Ki,[1],< 1 nM
same,Ki,[2],1.4 nM
same,IC50,[3]; first HCT-116 column (c4),70 nM
same,IC50,[3]; second HCT-116 column (c5),230 nM
N#Cc1ccccc1S(=O)(=O)N1CCC(Nc2nc(N)c(C(=O)c3c(F)cccc3F)s2)CC1 [Example P48],CDK2 % Inhibition at 0.03 μM,"[1]; 0.03 μM compound, Table 3",59%
same,CDK4 % Inhibition at 0.03 μM,"[2]; 0.03 μM compound, Table 3",67%
same,HCT-116 % Inhibition at 0.1 μM,[3]; [4],24%
same,HCT-116 % Inhibition at 0.25 μM,"[3]; HCT-116, Table 3",31%
CCOC(=O)NC(=O)N1CCC(Nc2nc(N)c(C(=O)c3c(F)cccc3F)s2)CC1 [Example O38],CDK2 % Inhibition At 0.03 μM,[1]; 0.03 μM compound,29%
same,CDK4 % Inhibition at 0.03 μM,"[2]; 0.03 μM compound, Table 2",15%
same,HCT-116 % Inhibition at 0.25 μM,"[3]; HCT-116, Table 2",29%
Cc1onc(-c2ccccc2Cl)c1C(=O)N1CCC(Nc2nc(N)c(C(=O)c3c(F)cccc3F)s2)CC1 [Example R11],CDK2 % Inhibition at 0.03 μM,[1]; at 0.03 μM,4%
same,CDK4 % Inhibition at 0.03 μM,[2]; at 0.03 μM,49%
same,HCT-116 % Inhibition at 0.1 μM,"[3]; HCT-116 cells, at 0.1 μM",0%
same,HCT-116 5 Inhibition at 0.25 μM,[3]; HCT-116 cells,37
"Nc1nc(NC2CCN(S(=O)(=O)c3ccc(-c4c[nH]cn4)cc3)CC2)sc1C(=O)c1c(F)cccc1F [Example F30, 1-(4-Amino-2-{1-[4-(1H-imidazol-4-y)-benzenesulfonyl]-piperidin-4-ylamino}-thiazol-5-yl)-1-(2,6-difluoro-phenyl)-methanone Trifluoroacetic Acid Salt]",Ki,[1],0.25 nM
same,Ki,[2],0.32 nM
same,IC50,[3]; first HCT-116 column (c4),170 nM
same,IC50,[3]; second HCT-116 column (c5),1700 nM
Cc1nn(C)c2ccc(C(=O)N3CCC(Nc4nc(N)c(C(=O)c5c(F)cccc5F)s4)CC3)c(Cl)c12 [Example R48],CDK2 % Inhibition at 0.03 μM,[1]; at 0.03 μM,16%
same,CDK4 % Inhibition at 0.03 μM,[2]; at 0.03 μM,32%
same,HCT-116 % Inhibition at 0.1 μM,"[3]; HCT-116 cells, at 0.1 μM",0%
same,HCT-116 5 Inhibition at 0.25 μM,[3]; HCT-116 cells,50
Cc1ccc(C(=O)N2CCC(Nc3nc(N)c(C(=O)c4c(F)cccc4F)s3)CC2)cc1F [Example R131],CDK2 % Inhibition at 0.03 μM,[1]; at 0.03 μM,42%
same,CDK4 % Inhibition at 0.03 μM,[2]; at 0.03 μM,58%
same,HCT-116 % Inhibition at 0.1 μM,"[3]; HCT-116 cells, at 0.1 μM",1%
same,HCT-116 5 Inhibition at 0.25 μM,[3]; HCT-116 cells,44
Nc1nc(NC2CCN(C(=O)c3ccc4c(c3)C(=O)c3ccccc3C4=O)CC2)sc1C(=O)c1c(F)cccc1F [Example R34],CDK2 % Inhibition at 0.03 μM,[1]; at 0.03 μM,35%
same,CDK4 % Inhibition at 0.03 μM,[2]; at 0.03 μM,60%
same,HCT-116 % Inhibition at 0.1 μM,"[3]; HCT-116 cells, at 0.1 μM",0%
same,HCT-116 5 Inhibition at 0.25 μM,[3]; HCT-116 cells,55
CN(C(=O)N1CCC(Nc2nc(N)c(C(=O)c3c(F)cccc3F)s2)CC1)c1ccccc1 [Example Q1],CDK2 % Inhibition at 0.03 μM,"[1]; 0.03 μM compound, Table 4",−7%
same,CDK4 % Inhibition at 0.03 μM,"[2]; 0.03 μM compound, Table 4",31%
same,HCT-116 % Inhibition at 0.1 μM,[3]; [5],0%
same,HCT-116 % Inhibition at 0.25 μM,"[3]; HCT-116, Table 4",38%
Nc1nc(NC2CCN(C(=O)NC3CCCCC3)CC2)sc1C(=O)c1c(F)cccc1F [Example O34],CDK2 % Inhibition At 0.03 μM,[1]; 0.03 μM compound,30%
same,CDK4 % Inhibition at 0.03 μM,"[2]; 0.03 μM compound, Table 2",6%
same,HCT-116 % Inhibition at 0.25 μM,"[3]; HCT-116, Table 2",22%

# Source: patent US20050101595A1, “N-containing cycloalkyl-substituted amino-thiazole derivatives and pharmaceutical compositions for inhibiting cell proliferation and methods for their use” (PFIZER INC., priority 2003, published 2005)
